Source: patent publication US7420062B2, “Hetaryl-substituted pyrazolidindione derivatives with pesticidal characteristics” (Bayer CropScience, AG, priority 2003, dated 2008)

Experiments:
Setaria [1] = experiment: Herbicidal post-emergence action, greenhouse; assay type: in vivo; settings: 1000 g a.i./ha, rated visually after 2 weeks, 100% = plants have died
Method: (§1) 2. Herbicidal Post-emergence Action Seeds of monocotyledonous and dicotyledonous weed and crop plants are placed into sandy loam, covered with soil and cultivated in a greenhouse under good growth conditions. About 2 weeks after sowing, the test plants are treated at the one-leaf stage. The test compounds, formulated as emulsion concentrates (EC), are, in various dosages with a water application rate of 800 l/ha (converted), with wetting agents added, sprayed onto the green parts of the plants. After the test plants have, been kept in the greenhouse under optimum growth conditions for 2 weeks, the effect of the preparations is rated visually in comparison to untreated controls (herbicidal effect in percent (%): 100% effect=the plants have died, 0% effect=like control plants).

Lolium [2] = experiment: Herbicidal post-emergence action, greenhouse; assay type: in vivo; settings: 1000 g a.i./ha, rated visually after 2 weeks, 100% = plants have died
Method: as §1

Echinoclora = experiment: Herbicidal post-emergence action, greenhouse; assay type: in vivo; settings: 1000 g a.i./ha, rated visually after 2 weeks, 100% = plants have died
Method: as §1

Setaria [3] = experiment: Herbicidal pre-emergence action, greenhouse; assay type: in vivo; settings: 1000 g a.i./ha, visual assessment after 2 to 3 weeks, 100% = plants have died
From the text: (§2) 1. Herbicidal Pre-emergence Action Seeds of monocotyledonous and dicotyledonous weed and crop plants are placed into sandy loam and covered with soil. The test compounds, formulated in the form of emulsion concentrates (EC), are, in various dosages with a water application rate of 800 l/ha (converted), with wetting agent added, applied to the surface of the covering soil. After the treatment, the pots are placed in a greenhouse and kept under good growth conditions for the test plants. The visual assessment of the emergence damage on the test plants is carried out after a trial period of 2 to 3 weeks by comparison with untreated controls (herbicidal effect in percent (%): 100% effect=the plants have died, 0% effect=like control plants).

Lolium [4] = experiment: Herbicidal pre-emergence action, greenhouse; assay type: in vivo; settings: 1000 g a.i./ha, visual assessment after 2 to 3 weeks, 100% = plants have died
From the text: as §2

[5] = test system: green peach aphid (Myzus persicae); experiment: Myzus test (spray treatment); assay type: in vivo; settings: 100 g/ha, spray treatment of Chinese cabbage discs
Method: Myzus Test—(Spray Treatment) Solvents: 78 parts by weight of acetone 1.5 parts by weight of dimethylformamide Emulsifier: 0.5 part by weight of alkylaryl polyglycol ether To produce a suitable preparation of active compound, 1 part by weight of active compound is mixed with the stated amount of solvents and the stated amount of emulsifier, and the concentrate is diluted with emulsifier-containing water to the desired concentration. Discs of Chinese cabbage (Brassica pekinensis) which are infested by all stages of the green peach aphid (Myzus persicae) are sprayed with a preparation of active compound of the desired concentration. After the desired period of time, the effect in % is determined. 100% means that all aphids have been killed; 0% means that none of the aphids have been killed.

SMILES | melting point [°C] | herbicidal effect in percent, Setaria (Setaria [1]) [%] | herbicidal effect in percent, Lolium (Lolium [2]) [%] | herbicidal effect in percent, Echinoclora (Echinoclora) [%] | herbicidal effect in percent, Setaria (Setaria [3]) [%] | herbicidal effect in percent, Lolium (Lolium [4]) [%] | Kill rate in % after 5 d [5] [%]
Cc1scnc1-c1c(O)n2n(c1=O)CCCC2 (single isomer, unassigned) [Example I-3-b-3] | 182 |  |  |  |  |  | 
Cc1scnc1-c1c(O)n2n(c1=O)CCCC2 (single isomer, unassigned) [Example I-3-b-2] | 86 |  |  |  |  |  | 
CCCc1cc(-c2ccc(Cl)cc2)nn1-c1c(O)n2n(c1=O)CCCC2 [Example I-3-a-1] |  | 100 | 90 | 100 | 100 | 100 | 100
